Measured values: ChEMBL document CHEMBL4190308, “Drifting of heme-coordinating group in imidazolylmethylxanthones leading to improved selective inhibition of CYP11B1” (Eur J Med Chem, 2017)

Assays:
[1] = species on record: Homo sapiens; test: Selectivity index, ratio of IC50 for human CYP11B2 to IC50 for human CYP11B1
[2] = biological target: T1, Cytochrome P450 11B2, mitochondrial (Homo sapiens, UniProt P19099); test: Inhibition of human CYP11B2 expressed in hamster V79MZh cells using [1,2-3H]-11-deoxycorticosterone as substrate after 30 mins by HPTLC analysis; assay type: cell-based
T1 sequence (P19099 whole entry): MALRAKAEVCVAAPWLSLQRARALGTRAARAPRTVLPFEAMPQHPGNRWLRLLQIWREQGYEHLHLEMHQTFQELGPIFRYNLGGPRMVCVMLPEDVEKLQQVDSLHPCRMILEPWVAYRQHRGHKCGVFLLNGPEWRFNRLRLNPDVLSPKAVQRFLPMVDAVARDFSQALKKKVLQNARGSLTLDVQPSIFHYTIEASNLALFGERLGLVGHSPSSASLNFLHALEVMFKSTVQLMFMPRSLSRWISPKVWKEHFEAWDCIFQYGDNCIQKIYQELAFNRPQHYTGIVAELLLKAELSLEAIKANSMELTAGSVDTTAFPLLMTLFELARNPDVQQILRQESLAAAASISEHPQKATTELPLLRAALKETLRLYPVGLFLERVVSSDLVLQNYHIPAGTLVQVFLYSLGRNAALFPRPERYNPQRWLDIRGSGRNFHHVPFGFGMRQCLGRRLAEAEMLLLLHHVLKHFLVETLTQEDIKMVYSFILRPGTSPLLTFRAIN

[3] = biological target: T2, Cytochrome P450 11B1, mitochondrial (Homo sapiens, UniProt P15538); test: Inhibition of human CYP11B1 expressed in hamster V79MZh cells using [1,2-3H]-11-deoxycorticosterone as substrate after 6 hrs by HPTLC analysis; assay type: cell-based
T2 sequence (P15538 whole entry): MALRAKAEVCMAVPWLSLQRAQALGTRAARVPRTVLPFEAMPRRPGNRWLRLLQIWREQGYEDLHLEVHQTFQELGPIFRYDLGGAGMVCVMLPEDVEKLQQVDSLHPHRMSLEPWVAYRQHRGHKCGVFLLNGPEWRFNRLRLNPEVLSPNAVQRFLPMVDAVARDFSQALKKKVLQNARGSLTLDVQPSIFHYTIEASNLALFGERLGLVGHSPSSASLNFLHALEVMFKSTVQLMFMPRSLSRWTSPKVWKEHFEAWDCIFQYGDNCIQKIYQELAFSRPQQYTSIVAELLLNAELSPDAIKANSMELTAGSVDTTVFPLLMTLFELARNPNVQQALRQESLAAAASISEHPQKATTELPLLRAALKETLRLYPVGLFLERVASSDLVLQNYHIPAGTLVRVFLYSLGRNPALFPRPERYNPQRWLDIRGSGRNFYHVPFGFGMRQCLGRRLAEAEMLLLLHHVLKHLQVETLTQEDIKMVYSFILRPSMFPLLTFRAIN

Structure (SMILES) | Ratio IC50 [1] | IC50 [2] [nM] | IC50 [3] [nM]
O=c1c2ccc(Cl)cc2oc2cc(Cn3ccnc3)ccc12 | 14.4 | 95.3 | 6.6
O=c1c2ccc(F)cc2oc2cc(Cn3ccnc3)ccc12 | 6.7 | 82 | 12.3
O=c1c2ccccc2oc2ccc(Cn3ccnc3)cc12 | 2.5 | 1140 | 463
COc1ccc2c(=O)c3ccc(Cn4ccnc4)cc3oc2c1 | 2.9 | 45.4 | 15.4
O=c1c2ccccc2oc2cc(Cn3ccnc3)ccc12 | 4.8 | 344 | 70.8
O=c1c2ccc(Cn3ccnc3)cc2oc2cc([N+](=O)[O-])ccc12 | 7 | 135 | 19.2
O=c1c2ccccc2oc2cccc(Cn3ccnc3)c12 | 1.2 | 114 | 99.1

More lines, in order of falling IC50 [2], values ahead:

Ratio IC50 [1] | IC50 [2] [nM] | IC50 [3] [nM] | Structure (SMILES)
3.9 | 44.4 | 11.4 | O=c1c2ccc(Br)cc2oc2cc(Cn3ccnc3)ccc12
2.9 | 43.7 | 15.1 | O=c1c2ccccc2oc2c(Cn3ccnc3)cccc12
4 | 26.2 | 6.5 | O=c1c2ccc(Cn3ccnc3)cc2oc2cc(Oc3ccccc3)ccc12
4.7 | 22.3 | 4.7 | O=c1c2ccc(Cn3ccnc3)cc2oc2cc(OCC3CC3)ccc12
3.5 | 20.3 | 5.8 | O=c1c2ccc(Cn3ccnc3)cc2oc2cc(OC3CCCC3)ccc12
4 | 16.6 | 4.1 | CC(C)Oc1ccc2c(=O)c3ccc(Cn4ccnc4)cc3oc2c1
